According to ChEMBL document CHEMBL1201862, “PubChem BioAssay data set” (2004):
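Dose response: 5 concentrations. Exposure: 48 h. Format: 96-well plates. Endpoint: linear interpolation; highest concentration if not reached. At the GI50, growth is halved.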 Calls of active or inactive are those of the source. Cut-off read from the data, not from the text of the source: active = GI50 up to about 1.1 µM and inactive = higher.

Assays:
Test in all cases: growth of human tumour cells (NCI), 48 h
OVCAR-5 = tested on: OVCAR-5
SF-268 = tested on: SF-268
SK-MEL-2 = tested on: SK-MEL-2
SF-539 = tested on: SF-539
A498 = tested on: A498
HL-60 = tested on: HL-60
NCI-H23 = tested on: NCI-H23
SK-MEL-5 = tested on: SK-MEL-5
NCI-H522 = tested on: NCI-H522
Malme-3M = tested on: Malme-3M
SK-OV-3 = tested on: SK-OV-3
LOX IMVI = tested on: LOX IMVI
MDA-N = tested on: MDA-N
T47D = tested on: T47D
OVCAR-4 = tested on: OVCAR-4
SNB-75 = tested on: SNB-75
CAKI-1 = tested on: CAKI-1
UO-31 = tested on: UO-31
A549 = tested on: A549
CCRF-CEM = tested on: CCRF-CEM

| SMILES | GI50 (OVCAR-5) | GI50 (SF-268) | GI50 (SK-MEL-2) | GI50 (SF-539) | GI50 (A498) | GI50 (HL-60) | GI50 (NCI-H23) | GI50 (SK-MEL-5) | GI50 (NCI-H522) | GI50 (Malme-3M) | GI50 (SK-OV-3) | GI50 (LOX IMVI) | GI50 (MDA-N) | GI50 (T47D) | GI50 (OVCAR-4) | GI50 (SNB-75) | GI50 (CAKI-1) | GI50 (UO-31) | GI50 (A549) | GI50 (CCRF-CEM) |
| --- | --- | --- | --- | --- | --- | --- | --- | --- | --- | --- | --- | --- | --- | --- | --- | --- | --- | --- | --- | --- |
| Nc1ncnc2c1nc(Cl)n2C1OC(CO)C(O)C1O (stereo not given) | 2.28 µM (inactive) | 12.2 µM (inactive) | 2.02 µM (inactive) | 4.69 µM (inactive) | 4.52 µM (inactive) | 0.181 µM (active) | 1.95 µM (inactive) | 3.25 µM (inactive) | 0.546 µM (active) | 27.2 µM (inactive) | 2.74 µM (inactive) | 0.424 µM (active) | 2.94 µM (inactive) | 0.574 µM (active) | 5.07 µM (inactive) | 1.49 µM (inactive) | 1.21 µM (inactive) | 0.906 µM (active) | 0.991 µM (active) | 0.607 µM (active) |
| O=C1/C(=C\c2ccc([N+](=O)[O-])cc2)CS(=O)(=O)C/C1=C/c1ccc([N+](=O)[O-])cc1 | 1.36 µM (inactive) | 0.773 µM (active) | 1.17 µM (inactive) | 0.189 µM (active) | 1.79 µM (inactive) | 0.324 µM (active) | 0.904 µM (active) | 1.4 µM (inactive) | 0.277 µM (active) | 0.41 µM (active) | 4.8 µM (inactive) | 0.597 µM (active) | 0.35 µM (active) | 0.962 µM (active) | 0.342 µM (active) | 15.5 µM (inactive) | 1.4 µM (inactive) | 0.176 µM (active) | 1.85 µM (inactive) | 0.264 µM (active) |
| Cc1ccc(NC2=NCCO2)c2c1CCC2 | 26 µM (inactive) | 41.8 µM (inactive) | 20 µM (inactive) | 22 µM (inactive) | 41.6 µM (inactive) | 16.7 µM (inactive) | 32.2 µM (inactive) | 17.5 µM (inactive) | 45.8 µM (inactive) | 27.8 µM (inactive) | 41.5 µM (inactive) | 22.8 µM (inactive) | 17.6 µM (inactive) | 51.3 µM (inactive) | 48.9 µM (inactive) | 32.9 µM (inactive) | > 100 µM (inactive) | > 100 µM (inactive) | 41.7 µM (inactive) | 37.2 µM (inactive) |
| CC1=NN=C(C)C1/N=N/c1ccc2[nH]c(C)nc2c1 | 26.2 µM (inactive) | 10.9 µM (inactive) | 8.07 µM (inactive) | 26.9 µM (inactive) | 8.39 µM (inactive) | 10.8 µM (inactive) | 37.3 µM (inactive) | 18.2 µM (inactive) | 6.95 µM (inactive) | 6.85 µM (inactive) | 5.27 µM (inactive) | 9.1 µM (inactive) | 19.8 µM (inactive) | 5.11 µM (inactive) | 58.1 µM (inactive) | 22.9 µM (inactive) | 5.02 µM (inactive) | 19.2 µM (inactive) | 27.4 µM (inactive) | 32.3 µM (inactive) |
| Oc1ncnc2c1nnn2CCCCCCCCCCCCn1nnc2c(O)ncnc21 | 99.1 µM (inactive) | 37.7 µM (inactive) | 23.4 µM (inactive) | 31.7 µM (inactive) | 25.2 µM (inactive) | > 45.4 µM (inactive) | 5.68 µM (inactive) | 19.8 µM (inactive) | 20.4 µM (inactive) | > 100 µM (inactive) | 17.7 µM (inactive) | 45.8 µM (inactive) | > 100 µM (inactive) | 0.641 µM (active) | > 90.6 µM (inactive) | > 40.9 µM (inactive) | > 100 µM (inactive) | 25.7 µM (inactive) | 36.9 µM (inactive) | > 100 µM (inactive) |
| C(=N\NC1=NCCCN1)/c1ccc(-c2cn3cc(/C=N/NC4=NCCCN4)ccc3n2)cc1 | > 100 µM (inactive) | > 100 µM (inactive) | > 100 µM (inactive) | > 61.7 µM (inactive) | > 41.7 µM (inactive) | 20.7 µM (inactive) | > 100 µM (inactive) | > 100 µM (inactive) | > 100 µM (inactive) | 19 µM (inactive) | > 100 µM (inactive) | > 100 µM (inactive) | > 100 µM (inactive) | > 100 µM (inactive) | > 100 µM (inactive) | > 81.5 µM (inactive) | 37 µM (inactive) | > 100 µM (inactive) | 24.6 µM (inactive) | > 41.9 µM (inactive) |
| COc1ccc2[nH]c3c(C)c4ccnc(NCCCN(C)CCCNC(=O)NCCCN(C)CCCNc5nccc6c(C)c7[nH]c8ccc(OC)cc8c7c(C)c56)c4c(C)c3c2c1 | 0.843 µM (active) | 0.551 µM (active) | 1.35 µM (inactive) | 0.314 µM (active) | 1.39 µM (inactive) | 0.147 µM (active) | 0.989 µM (active) | 0.774 µM (active) | 0.226 µM (active) | 0.569 µM (active) | 1.67 µM (inactive) | 0.855 µM (active) | 0.748 µM (active) | 0.69 µM (active) | 0.596 µM (active) | 0.402 µM (active) | 0.716 µM (active) | 0.881 µM (active) | 0.249 µM (active) | 0.147 µM (active) |
| Nc1[nH]c(=S)[nH]c(=O)c1/N=N/c1c(Br)cc(S(N)(=O)=O)cc1Br | > 100 µM (inactive) | > 100 µM (inactive) | > 100 µM (inactive) | > 100 µM (inactive) | > 100 µM (inactive) | > 100 µM (inactive) | > 100 µM (inactive) | > 100 µM (inactive) | > 100 µM (inactive) | > 100 µM (inactive) | > 100 µM (inactive) | > 100 µM (inactive) | > 100 µM (inactive) | > 100 µM (inactive) | > 100 µM (inactive) | 35.7 µM (inactive) | > 100 µM (inactive) | > 100 µM (inactive) | > 100 µM (inactive) | > 100 µM (inactive) |
| OC1c2ccccc2CC12Cc1ccccc1C2 (stereo not given) | > 100 µM (inactive) | > 100 µM (inactive) | > 100 µM (inactive) | > 100 µM (inactive) | > 100 µM (inactive) | 74.1 µM (inactive) | > 100 µM (inactive) | 22.6 µM (inactive) | 62.5 µM (inactive) | 92.9 µM (inactive) | > 100 µM (inactive) | > 100 µM (inactive) | > 100 µM (inactive) | > 100 µM (inactive) | > 100 µM (inactive) | 61.4 µM (inactive) | > 100 µM (inactive) | 94.2 µM (inactive) | 99.5 µM (inactive) | > 100 µM (inactive) |
| COc1ccc(CNC(=O)[C@H](Cc2ccc(O)cn2)NC(C)=O)cc1OC | > 100 µM (inactive) | > 90.6 µM (inactive) | > 100 µM (inactive) | > 100 µM (inactive) | > 100 µM (inactive) | > 100 µM (inactive) | > 100 µM (inactive) | > 100 µM (inactive) | > 93.5 µM (inactive) | > 100 µM (inactive) | > 100 µM (inactive) | > 100 µM (inactive) | > 100 µM (inactive) | > 100 µM (inactive) | > 100 µM (inactive) | > 100 µM (inactive) | > 100 µM (inactive) | > 100 µM (inactive) | > 100 µM (inactive) | > 100 µM (inactive) |
